Data: patent publication US6794489B2, “Compositions and methods for treatment of sexual dysfunction” (Palatin Technologies, Inc., priority 1999, dated 2004)

Columns and labels:
[1] = Representative Profile in Monkeys Intravenously Delivered
Excerpt: Table printed on a drawing sheet, FIG. 2
Title: Representative Profile in Monkeys Intravenously Delivered

[2] = Profiles in Monkeys Intranasally Delivered
Excerpt: Table printed on a drawing sheet, FIG. 3
Title: Profiles in Monkeys Intranasally Delivered
First reader's note: Columns 2001, 2002 and 2003 are individual monkeys, and the last two columns are their mean and SEM; the substance name is taken from the y-axis label, printed 'Compopund 1'.

[3] = tested on: Sprague Dawley rats; experiment: Induction of penile erection by intranasal administration; format: in vivo, rat; conditions: for % Rats with Penile Erection / Number of Erections/Rat/30 Minutes: intranasal
Method: In another series of experiments, a dosing study was conducted in rats by nasal administration of from 15 μg per kg of body weight to 1500 μg per kg of body weight, using Nasal Formulation 1. Based on penile erectile response behavior, the peptide was efficacious at all dose amounts administered, and particularly from 25 μg/kg to 75 μg/kg, with pharacologic effect observed over the range from 15 μg/kg to 1500 μg/kg. […]

[4] = tested on: Sprague Dawley rats; experiment: Inhibition of Compound 1-induced penile erection by melanocortin antagonist; format: in vivo, rat; conditions: 25 or 50 μg/kg nasal in Nasal Formulation 1, control groups
[5] = tested on: ferrets; experiment: Ferret emesis study; format: in vivo; conditions: animals out of six
Excerpt: Ferrets are a recognized model for emetic studies. The vehicle for both intravenous and intranasal administration was saline. The positive control was cisplatin, known to induce vomiting in ferrets. The data is described as the number of animals out of a group of six showing signs of vomiting.

[6] = Pharmacokinetics in rats following IV administration; format: in vivo, rat; conditions: intravenous 100 μg/kg, bioassay
[7] = tested on: Female Long-Evans rats; experiment: Female sexual response, bilevel chambers; format: in vivo, rat; conditions: 200 μg/kg subcutaneous
Method: Female Long-Evans rats (200-250 g) were house in groups of 2 to 4 depending on size in plastic cages in a colony room maintained on a reversed 12:12 hour light/dark cycle at approximately 21° C. with food and water ad libitum. The rats were ovariectomized bilaterally via lumbar incisions one week prior to preliminary tests of sexual behavior. Intact Long-Evans male rats served as stimulus males, and were sexual vigorous, initiating copulatory activity with females within 15 seconds of being placed into bilevel chambers containing female rats. Following preliminary tests of sexual behavior, females were administered subcutaneous injections of estradiol benzoate, 10 μg in 0.1 mL of sesame oil, forty-eight hours prior to testing, and progesterone, 500 μg in 0.1 mL of sesame oil, four hours prior to testing. Administration of estradiol benzoate and progesterone induced full sexual receptivity in the female rats. Female rats were placed in bilevel chambers five minutes prior to the introduction of a sexual vigorous male. […] Tests were videotaped and score subsequently for appetitive level changing during the five minute period prior to the introduction of the male, lordosis quotients and reflex magnitudes, incidents of solicitation (head-wise orientation and runaway), hops and darts, pacing (level changes per mount), female mounts and defensive responses. […]

[8] = tested on: Female Long-Evans rats; experiment: Female sexual response, unilevel pacing chambers; format: in vivo, rat; conditions: 200 μg/kg subcutaneous
Excerpt: Tests were videotaped and scored as in Example 13, with pacing defined as number of exits from and returns to the side with the male; and exist and return latencies following mounts, intromissions or ejaculations. FIGS. 8A, 8B, 8C and 8D show the results.

[9] = PROFILE IN RATS INTRAVENOUSLY ADMINISTERED
Excerpt: Table printed on a drawing sheet, FIG. 1
Title: PROFILE IN RATS INTRAVENOUSLY ADMINISTERED
Section band inside the table: i.v.

[10] = tested on: Sprague Dawley rats; experiment: Induction of penile erection by intravenous injection; conditions: for Dose resulting in equivalent penile response by intravenous injection / Efficacious dose (penile erection in 100% of animals): rats; for Efficacious dose (penile erection in 100% of animals): intravenous injection
[11] = tested on: men with psychogenic erectile dysfunction; conditions: subcutaneous, 0.025 to 0.157 mg/kg, cited from earlier work

CCCC[C@H](NC(C)=O)C(=O)N[C@H]1CC(=O)NCCCC[C@@H](C(=O)O)NC(=O)[C@H](Cc2c[nH]c3ccccc23)NC(=O)[C@H](CCCNC(=N)N)NC(=O)[C@@H](Cc2ccccc2)NC(=O)[C@H](Cc2c[nH]cn2)NC1=O [Compopund 1]
AUC [1]: 3730.0 ng·min/mL
Cmax [1]: 1149.0 ng/mL
Tmax [1]: 0 h
%Bioavailability [2]: 0.73%
AUC [2]: 27.16 ng·min/mL
Cmax [2]: 0.38 ng/mL
Tmax [2]: 50.00 min

CCCCC(NC(C)=O)C(=O)NC1CC(=O)NCCCCC(C(=O)O)NC(=O)C(Cc2c[nH]c3ccccc23)NC(=O)C(CCCNC(=N)N)NC(=O)C(Cc2ccccc2)NC(=O)C(Cc2c[nH]cn2)NC1=O [Compound 1, Ac-Nle-cyclo(-Asp-His-D-Phe-Arg-Trp-Lys)-OH]
% Rats with Penile Erection ([3]; 15 μg/kg): 50%
Number of Erections/Rat/30 Minutes ([3]; 15 μg/kg): 0.5
% Rats with Penile Erection ([3]; 25 μg/kg): 100%
Number of Erections/Rat/30 Minutes ([3]; 25 μg/kg): 2.0
% Rats with Penile Erection ([3]; 37 μg/kg): 100%
Number of Erections/Rat/30 Minutes ([3]; 37 μg/kg): 2.0
% Rats with Penile Erection ([3]; 50 μg/kg): 100%
Number of Erections/Rat/30 Minutes ([3]; 50 μg/kg): 2.0
% Rats with Penile Erection ([3]; 75 μg/kg): 100%
Number of Erections/Rat/30 Minutes ([3]; 75 μg/kg): 2.5
% Rats with Penile Erection ([3]; 500 μg/kg): 100%
Number of Erections/Rat/30 Minutes ([3]; 500 μg/kg): 1.5
% Rats with Penile Erection ([3]; 1000 μg/kg): 100%
Number of Erections/Rat/30 Minutes ([3]; 1000 μg/kg): 1.5
% Rats with Penile Erection ([3]; 1500 μg/kg): 50%
Number of Erections/Rat/30 Minutes ([3]; 1500 μg/kg): 0.5
Rats with observed erections, without pre-administration of SHU9119 [4]: 100%
Signs of vomiting (proportions) ([5]; 10 μg/kg IV): 0/6
Signs of vomiting (proportions) ([5]; 30 μg/kg IV): 6/6
Signs of vomiting (proportions) ([5]; 100 μg/kg IN): 0/6
Signs of vomiting (proportions) ([5]; 100 μg/kg IV): 6/6
Signs of vomiting (proportions) ([5]; 300 μg/kg IN): 1/6
Signs of vomiting (proportions) ([5]; 500 μg/kg IN): 1/6
Pharmacokinetic profile in plasma [6]: bi-phasic
Rates of appetitive level changing, pacing, lordosis, female mounts or rejection responses [7]: without affecting
Number of solicitations ([7]; fully and partially primed female rats): increased the number of solicitations significantly
Ejaculation return latencies [8]: increase
Lordosis or defensive responding [8]: no effect
Number of exits or returns made by the females [8]: no significant effect
Number of solicitations, hops and darts, and female mounts compared to controls ([8]; fully primed): increased the number of solicitations, hops and darts, and female mounts significantly
α-phase [9]: 5 min
β-phase [9]: 25 min
% Rats with Penile Erection ([10]; intravenous, 0.5 μg/kg): 50%
Number of Erections/Rat/30 Minutes ([10]; intravenous, 0.5 μg/kg): 0.5
% Rats with Penile Erection ([10]; intravenous, 1.0 μg/kg): 100%
Number of Erections/Rat/30 Minutes ([10]; intravenous, 1.0 μg/kg): 1.0
% Rats with Penile Erection ([10]; intravenous, 2.0 μg/kg): 100%
Number of Erections/Rat/30 Minutes ([10]; intravenous, 2.0 μg/kg): 2.0
Rats having multiple erections ([10]; intravenous, 2 μg/kg, 30 minutes observation period): approximately 50%
% Rats with Penile Erection ([10]; intravenous, 5.0 μg/kg): 100%
Number of Erections/Rat/30 Minutes ([10]; intravenous, 5.0 μg/kg): 1.8
% Rats with Penile Erection ([10]; intravenous, 10.0 μg/kg): 100%
Number of Erections/Rat/30 Minutes ([10]; intravenous, 10.0 μg/kg): 2.5
Dose resulting in equivalent penile response by intravenous injection [10]: 2 μg/kg of body weight
Efficacious dose (penile erection in 100% of animals) [10]: 0.001 mg/kg

Melanotan-II [reference compound]
% Rats with Penile Erection ([3]; 100 μg/kg): 25%
Number of Erections/Rat/30 Minutes ([3]; 100 μg/kg): 0.25
% Rats with Penile Erection ([3]; 500 μg/kg): 100%
Number of Erections/Rat/30 Minutes ([3]; 500 μg/kg): 1.0
Period of the penile erection response after nasal administration ([3]; rats, 30 minute observation in ten-minute periods): 2nd and 3rd ten-minute period
Treated men developing clinically apparent erections [11]: 8 of 10
Mean duration of tip rigidity greater than 80% ([11]; placebo 3.0 minutes): 38 min
% Rats with Penile Erection ([10]; intravenous, 10.0 μg/kg): 17%
Number of Erections/Rat/30 Minutes ([10]; intravenous, 10.0 μg/kg): 0.3
% Rats with Penile Erection ([10]; intravenous, 100.0 μg/kg): 75%
Number of Erections/Rat/30 Minutes ([10]; intravenous, 100.0 μg/kg): 1.0
Optimal efficacious dose intravenously ([10]; rat model of penile erection): 100 μg/kg of body weight
Dose resulting in equivalent penile response by intravenous injection [10]: 100 μg/kg of body weight
Efficacious dose (penile erection in 100% of animals) [10]: ≥ 0.1 mg/kg
